Assay results: PubChem BioAssay AID328 (DTP/NCI, 2004)
“And” between values parts separate entries of the source, which are not always exact repeats. Equal entries are not always repeated. Inconclusive results and toxic doses are left out.

Test system: BDF1 mice, P388 leukemia ip, median survival T/C
Assay: NCI In Vivo Anticancer Drug Screen. Data for tumor model P388 Leukemia (intraperitoneal) in B6D2F1 (BDF1) mice
Conditions: endpoint: median survival time, higher = longer survival
Method in brief: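 Each value expresses how treatment altered survival: treated-mouse outcome over vehicle-mouse outcome, both groups bearing the transplanted tumour.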

[1] = dose: 25.0 mg/kg/injection, schedule: Q01DX009 (ip), vehicle: saline with Tween-80
[2] = dose: 50.0 mg/kg/injection, schedule: Q01DX009 (ip), vehicle: saline with Tween-80
[3] = dose: 100.0 mg/kg/injection, schedule: Q01DX009 (ip), vehicle: saline with Tween-80
[4] = dose: 12.5 mg/kg/injection, schedule: Q01DX009 (ip), vehicle: Klucel (hydroxypropylcellulose) (HPC)
[5] = dose: 25.0 mg/kg/injection, schedule: Q01DX009 (ip), vehicle: Klucel (hydroxypropylcellulose) (HPC)
[6] = dose: 50.0 mg/kg/injection, schedule: Q01DX009 (ip), vehicle: Klucel (hydroxypropylcellulose) (HPC)
[7] = dose: 100.0 mg/kg/injection, schedule: Q04DX003 (ip), vehicle: Klucel (hydroxypropylcellulose) (HPC)
[8] = dose: 200.0 mg/kg/injection, schedule: Q04DX003 (ip), vehicle: Klucel (hydroxypropylcellulose) (HPC)
[9] = dose: 100.0 mg/kg/injection, schedule: Q01DX009 (ip), vehicle: Klucel (hydroxypropylcellulose) (HPC)
[10] = dose: 200.0 mg/kg/injection, schedule: Q04DX003 (ip), vehicle: saline with Tween-80
[11] = dose: 400.0 mg/kg/injection, schedule: Q04DX003 (ip), vehicle: saline with Tween-80
[12] = dose: 100.0 mg/kg/injection, schedule: Q01DX001 (ip), vehicle: saline
[13] = dose: 200.0 mg/kg/injection, schedule: Q01DX001 (ip), vehicle: saline
[14] = dose: 400.0 mg/kg/injection, schedule: Q01DX001 (ip), vehicle: saline
[15] = dose: 100.0 mg/kg/injection, schedule: Q04DX003 (ip), vehicle: saline
[16] = dose: 50.0 mg/kg/injection, schedule: Q04DX003 (ip), vehicle: Klucel (hydroxypropylcellulose) (HPC)
[17] = dose: 200.0 mg/kg/injection, schedule: Q01DX009 (ip), vehicle: saline with Tween-80
[18] = dose: 100.0 mg/kg/injection, schedule: Q04DX003 (ip), vehicle: saline with Tween-80

COc1ccc2c(c1)CCC(C)(C#N)C2=O (centres undefined)
T/C [1]: 100 % of control
T/C [2]: 100 % of control
T/C [3]: 104 % of control

CCCC(=O)Nc1ccn(C2OC(COC(=O)CCC)C(OC(=O)CCC)C2OC(=O)CCC)c(=O)n1 (centres undefined)
T/C (dose: 6.25 mg/kg/injection, schedule: Q01DX009 (ip), vehicle: Klucel (hydroxypropylcellulose) (HPC)): 91 % of control
T/C [4]: 100 % of control
T/C [5]: 87 % of control
T/C [6]: 104 % of control
T/C [7]: 100 % of control
T/C (dose: 200.0 mg/kg/injection, schedule: Q01DX009 (ip), vehicle: Klucel (hydroxypropylcellulose) (HPC)): 165 % of control and 177 % of control
T/C [8]: 109 % of control
T/C (dose: 400.0 mg/kg/injection, schedule: Q01DX009 (ip), vehicle: Klucel (hydroxypropylcellulose) (HPC)): 181 % of control and 190 % of control
T/C (dose: 400.0 mg/kg/injection, schedule: Q04DX003 (ip), vehicle: Klucel (hydroxypropylcellulose) (HPC)): 122 % of control

CCCCC/C(C)=N\Nc1ccccn1
T/C [4]: 100 % of control
T/C [5]: 113 % of control
T/C [6]: 104 % of control and 113 % of control
T/C [9]: 118 % of control

O=[N+]([O-])c1ccc(S(=O)(=O)c2ccc([N+](=O)[O-])cc2)cc1
T/C (dose: 50.0 mg/kg/injection, schedule: Q04DX003 (ip), vehicle: saline with Tween-80): 101 % of control
T/C [10]: 110 % of control
T/C [11]: 93 % of control

CC1(C#N)CC(C#N)Nc2ccccc2N1 (centres undefined)
T/C [12]: 104 % of control
T/C [13]: 91 % of control
T/C [14]: 100 % of control

C1OC1CO[C@@H]1CO[C@H]2[C@@H]1OC[C@H]2OCC1CO1 (some centres undefined)
T/C (dose: 264.0 mg/kg/injection, schedule: Q04DX003 (ip), vehicle: saline with Tween-80): 183 % of control
T/C [11]: 195 % of control

Cc1c(N)ncc2ccccc12
T/C (dose: 12.5 mg/kg/injection, schedule: Q04DX003 (ip), vehicle: saline): 115 % of control
T/C (dose: 25.0 mg/kg/injection, schedule: Q04DX003 (ip), vehicle: saline): 108 % of control
T/C (dose: 50.0 mg/kg/injection, schedule: Q04DX003 (ip), vehicle: saline): 99 % of control
T/C [15]: 118 % of control

Oc1ccc(Nc2c3ccccc3nc3c2ccc2ccccc23)cc1CN(CCCl)CCCl
T/C (dose: 0.08 mg/kg/injection, schedule: Q01DX009 (ip), vehicle: saline): 100 % of control
T/C (dose: 0.12 mg/kg/injection, schedule: Q01DX009 (ip), vehicle: saline): 90 % of control
T/C (dose: 0.51 mg/kg/injection, schedule: Q01DX009 (ip), vehicle: saline): 168 % of control
T/C (dose: 0.52 mg/kg/injection, schedule: Q01DX009 (ip), vehicle: saline): 110 % of control
T/C (dose: 1.02 mg/kg/injection, schedule: Q01DX009 (ip), vehicle: saline): 100 % of control
T/C (dose: 1.1 mg/kg/injection, schedule: Q01DX009 (ip), vehicle: saline): 163 % of control
T/C (dose: 1.17 mg/kg/injection, schedule: Q01DX009 (ip), vehicle: saline): 100 % of control
T/C (dose: 1.56 mg/kg/injection, schedule: Q01DX009 (ip), vehicle: saline): 109 % of control
T/C (dose: 1.65 mg/kg/injection, schedule: Q04DX003 (ip), vehicle: saline): 159 % of control
T/C (dose: 2.1 mg/kg/injection, schedule: Q04DX003 (ip), vehicle: saline): 100 % of control
T/C (dose: 2.34 mg/kg/injection, schedule: Q01DX009 (ip), vehicle: saline): 168 % of control

O=C(CCCN1CCC(O)(c2cccc(C(F)(F)F)c2)CC1)c1ccc(F)cc1
T/C [4]: 120 % of control
T/C (dose: 12.5 mg/kg/injection, schedule: Q04DX003 (ip), vehicle: Klucel (hydroxypropylcellulose) (HPC)): 112 % of control
T/C (dose: 18.75 mg/kg/injection, schedule: Q04DX003 (ip), vehicle: Klucel (hydroxypropylcellulose) (HPC)): 96 % of control
T/C [5]: 114 % of control
T/C (dose: 25.0 mg/kg/injection, schedule: Q04DX003 (ip), vehicle: Klucel (hydroxypropylcellulose) (HPC)): 122 % of control
T/C [6]: 117 % of control
T/C [16]: 121 % of control
T/C (dose: 150.0 mg/kg/injection, schedule: Q04DX003 (ip), vehicle: Klucel (hydroxypropylcellulose) (HPC)): 96 % of control

CC(=O)NN(c1ccccc1)c1ccccc1
T/C [16]: 112 % of control
T/C [7]: 91 % of control
T/C [8]: 108 % of control

COc1ccc(OC)c(C(=O)C[n+]2ccccc2)c1
T/C [1]: 91 % of control
T/C [2]: 91 % of control

CCOC(=O)Cn1c(=S)sc2ccccc21
T/C [1]: 114 % of control
T/C [2]: 98 % of control and 114 % of control
T/C [3]: 95 % of control and 120 % of control
T/C [17]: 93 % of control and 100 % of control

CCN1C=NNc2ccc(Cl)cc2C1=O
T/C [18]: 97 % of control
T/C [10]: 97 % of control
T/C [11]: 100 % of control

CC1(C)CC(C(N)=O)C(C)(C)N1O (centres undefined)
T/C [12]: 109 % of control
T/C [13]: 86 % of control
T/C [14]: 100 % of control

COC(=O)c1ccc(SCCCN2CCOCC2)cc1
T/C [15]: 90 % of control
T/C (dose: 200.0 mg/kg/injection, schedule: Q04DX003 (ip), vehicle: saline): 113 % of control

OCCC1CC1=C1CC1 (centres undefined)
T/C [5]: 105 % of control
T/C [6]: 105 % of control
T/C [9]: 110 % of control

Cc1c2oc3c(C)ccc(C(=O)NC4C(=O)NC(C(C)C)C(=O)N5CCCC5C(=O)N(C)CC(=O)N(C)C(C(C)C)C(=O)OC4C)c3nc-2c(C(=O)NC2C(=O)NC(C(C)C)C(=O)N3CCCC3C(=O)N(C)CC(=O)N(C)C(C(C)C)C(=O)OC2C)c(NCCCO)c1=O (centres undefined)
T/C (dose: 0.05 mg/kg/injection, schedule: Q01DX009 (ip), vehicle: saline + alcohol): 150 % of control
T/C (dose: 0.1 mg/kg/injection, schedule: Q01DX009 (ip), vehicle: saline + alcohol): 172 % of control
T/C (dose: 0.2 mg/kg/injection, schedule: Q01DX009 (ip), vehicle: saline + alcohol): 210 % of control
T/C (dose: 0.3 mg/kg/injection, schedule: Q04DX003 (ip), vehicle: saline + alcohol): 169 % of control
T/C (dose: 0.4 mg/kg/injection, schedule: Q01DX009 (ip), vehicle: saline + alcohol): 226 % of control
T/C (dose: 0.6 mg/kg/injection, schedule: Q04DX003 (ip), vehicle: saline + alcohol): 191 % of control
T/C (dose: 0.8 mg/kg/injection, schedule: Q01DX001 (ip), vehicle: saline + alcohol): 153 % of control
T/C (dose: 0.8 mg/kg/injection, schedule: Q01DX009 (ip), vehicle: saline + alcohol): 285 % of control
T/C (dose: 1.2 mg/kg/injection, schedule: Q04DX003 (ip), vehicle: saline + alcohol): 200 % of control
T/C (dose: 2.4 mg/kg/injection, schedule: Q04DX003 (ip), vehicle: saline + alcohol): 261 % of control
T/C (dose: 3.2 mg/kg/injection, schedule: Q01DX001 (ip), vehicle: saline + alcohol): 207 % of control
T/C (dose: 4.8 mg/kg/injection, schedule: Q04DX003 (ip), vehicle: saline + alcohol): 248 % of control
T/C (dose: 6.4 mg/kg/injection, schedule: Q01DX001 (ip), vehicle: saline + alcohol): 198 % of control

Cc1nc(N)cc(=O)[nH]1
T/C (dose: 100.0 mg/kg/injection, schedule: Q01DX009 (ip), vehicle: water): 105 % of control
T/C (dose: 200.0 mg/kg/injection, schedule: Q01DX009 (ip), vehicle: water): 110 % of control
T/C (dose: 400.0 mg/kg/injection, schedule: Q01DX009 (ip), vehicle: water): 95 % of control

CC(=S)Nc1ccc2ccccc2c1
T/C [3]: 107 % of control
T/C [18]: 118 % of control
T/C [17]: 107 % of control
T/C [10]: 109 % of control
T/C (dose: 400.0 mg/kg/injection, schedule: Q01DX009 (ip), vehicle: saline with Tween-80): 119 % of control
T/C [11]: 122 % of control

Cc1ccc(C)c(NC(=O)c2cccc(Cl)c2)c1
T/C [18]: 104 % of control
T/C [10]: 100 % of control
T/C [11]: 104 % of control

CC1CCC2N(C1)CC1C(C(O)C(O)C3(O)C1CC14OC5(O)C(O)CCC1(C)C5CC(O)C34)C2(C)O (centres undefined)
T/C (dose: 25.0 mg/kg/injection, schedule: Q01DX010 (ip), vehicle: carboxymethylcellulose (CMC)): 100 % of control
T/C (dose: 50.0 mg/kg/injection, schedule: Q01DX010 (ip), vehicle: carboxymethylcellulose (CMC)): 115 % of control
T/C (dose: 100.0 mg/kg/injection, schedule: Q01DX010 (ip), vehicle: carboxymethylcellulose (CMC)): 110 % of control

CC(=O)NC(Cc1ccc(F)cc1)C(=O)O (centres undefined)
T/C [17]: 121 % of control

Cc1ccc(C(=O)N(O)c2ccccc2)cc1
T/C [2]: 98 % of control
T/C [3]: 95 % of control
T/C [17]: 104 % of control
